Test results as given in publication PMC12125351 (Communications Biology, 2025).
No end group written: not given here.

Test system: P. aeruginosa (ATCC 27853)
Type: cell-based
Settings: broth microdilution in MHB, 37 °C, 16–20 h; triplicate, n = 3

With LVQRGRFGRFLSRIRRIRPRINFNIKGSI [AMP-17] as the sequence, how does the “Experimentally measured MIC against P. aeruginosa (ATCC 27853)” value read?
The value was “above 25 μM”.
